PubChem BioAssay AID248 (DTP/NCI, 2004)
Values joined by “and” are separate entries in the source; they are usually repeats but may differ in a detail not shown here. Equal entries are not always repeated. Toxic doses and inconclusive results are not listed.

Test system: L1210 leukemia ip in BDF1 mice, survival T/C
Experiment: NCI In Vivo Anticancer Drug Screen. Data for tumor model L1210 Leukemia (intraperitoneal) in B6D2F1 (BDF1) mice
Details: higher = longer survival
Procedure, shortened: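 Read-out is survival time, reported as the treated-group measurement over the vehicle-control measurement.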

CC[n+]1ccc(Nc2ccc(NC(=O)c3ccc(Nc4cc[n+](CC)c5ccc(N)cc45)cc3)cc2)cc1
T/C (endpoint: mean survival time, dose: 0.12 mg/kg/injection, schedule: Q01DX005 (iv), vehicle: water): 101 % of control | T/C (endpoint: mean survival time, dose: 0.12 mg/kg/injection, schedule: Q04DX003 (iv), vehicle: water): 105 % of control | T/C (endpoint: mean survival time, dose: 0.25 mg/kg/injection, schedule: Q01DX005 (iv), vehicle: water): 105 % of control | T/C (endpoint: mean survival time, dose: 0.25 mg/kg/injection, schedule: Q03HX024 (ip), vehicle: water): 113 % of control | T/C (endpoint: mean survival time, dose: 0.25 mg/kg/injection, schedule: Q04DX003 (iv), vehicle: water): 102 % of control | T/C (endpoint: mean survival time, dose: 0.5 mg/kg/injection, schedule: Q01DX005 (iv), vehicle: water): 100 % of control and 103 % of control | T/C (endpoint: mean survival time, dose: 0.5 mg/kg/injection, schedule: Q01DX009 (sc), vehicle: water): 94 % of control | T/C (endpoint: mean survival time, dose: 0.5 mg/kg/injection, schedule: Q03HX024 (ip), vehicle: water): 157 % of control | T/C (endpoint: mean survival time, dose: 0.5 mg/kg/injection, schedule: Q03HX024 (oral), vehicle: water): 97 % of control | T/C (endpoint: mean survival time, dose: 0.5 mg/kg/injection, schedule: Q04DX003 (iv), vehicle: water): 101 % of control | T/C (endpoint: mean survival time, dose: 0.75 mg/kg/injection, schedule: Q01DX009 (ip), vehicle: saline): 152 % of control and 201 % of control | T/C (endpoint: mean survival time, dose: 1.0 mg/kg/injection, schedule: Q01DX005 (iv), vehicle: water): 115 % of control | T/C (endpoint: mean survival time, dose: 1.0 mg/kg/injection, schedule: Q01DX009 (ip), vehicle: water): 180 % of control and 211 % of control | T/C (endpoint: mean survival time, dose: 1.0 mg/kg/injection, schedule: Q01DX009 (oral), vehicle: water): 103 % of control | T/C (endpoint: mean survival time, dose: 1.0 mg/kg/injection, schedule: Q01DX009 (sc), vehicle: water): 112 % of control and 122 % of control | T/C (endpoint: mean survival time, dose: 1.0 mg/kg/injection, schedule: Q03HX016 (ip), vehicle: water): 156 % of control | T/C (endpoint: mean survival time, dose: 1.0 mg/kg/injection, schedule: Q03HX024 (ip), vehicle: water): 186 % of control and 187 % of control and 208 % of control | T/C (endpoint: mean survival time, dose: 1.0 mg/kg/injection, schedule: Q03HX024 (oral), vehicle: water): 96 % of control and 101 % of control | T/C (endpoint: mean survival time, dose: 1.0 mg/kg/injection, schedule: Q03HX024 (sc), vehicle: water): 164 % of control | T/C (endpoint: mean survival time, dose: 1.0 mg/kg/injection, schedule: Q04DX003 (iv), vehicle: water): 103 % of control | T/C (endpoint: mean survival time, dose: 1.5 mg/kg/injection, schedule: Q01DX009 (ip), vehicle: saline): 160 % of control and 171 % of control | T/C (endpoint: mean survival time, dose: 1.9 mg/kg/injection, schedule: Q01DX009 (ip), vehicle: saline): 281 % of control | T/C (endpoint: mean survival time, dose: 2.0 mg/kg/injection, schedule: Q01DX005 (iv), vehicle: water): 103 % of control | T/C (endpoint: mean survival time, dose: 2.0 mg/kg/injection, schedule: Q01DX009 (oral), vehicle: water): 103 % of control | T/C (endpoint: mean survival time, dose: 2.0 mg/kg/injection, schedule: Q01DX009 (sc), vehicle: water): 189 % of control and 206 % of control | T/C (endpoint: mean survival time, dose: 2.0 mg/kg/injection, schedule: Q03HX016 (ip), vehicle: water): 188 % of control | T/C (endpoint: mean survival time, dose: 2.0 mg/kg/injection, schedule: Q03HX024 (ip), vehicle: water): 123 % of control and 218 % of control | T/C (endpoint: mean survival time, dose: 2.0 mg/kg/injection, schedule: Q03HX024 (oral), vehicle: water): 97 % of control and 100 % of control | T/C (endpoint: mean survival time, dose: 2.0 mg/kg/injection, schedule: Q03HX024 (sc), vehicle: water): 211 % of control | T/C (endpoint: mean survival time, dose: 2.0 mg/kg/injection, schedule: Q04DX003 (ip), vehicle: water): 113 % of control and 120 % of control | T/C (endpoint: mean survival time, dose: 2.0 mg/kg/injection, schedule: Q04DX003 (iv), vehicle: water): 105 % of control | T/C (endpoint: mean survival time, dose: 3.0 mg/kg/injection, schedule: Q01DX009 (ip), vehicle: saline): 274 % of control | T/C (endpoint: mean survival time, dose: 3.2 mg/kg/injection, schedule: Q01DX009 (ip), vehicle: saline): 313 % of control | T/C (endpoint: mean survival time, dose: 4.0 mg/kg/injection, schedule: Q01DX001 (ip), vehicle: water): 111 % of control | T/C (endpoint: mean survival time, dose: 4.0 mg/kg/injection, schedule: Q01DX009 (oral), vehicle: water): 96 % of control | T/C (endpoint: mean survival time, dose: 4.0 mg/kg/injection, schedule: Q01DX009 (sc), vehicle: water): 116 % of control and 219 % of control | T/C (endpoint: mean survival time, dose: 4.0 mg/kg/injection, schedule: Q03HX016 (ip), vehicle: water): 271 % of control | T/C (endpoint: mean survival time, dose: 4.0 mg/kg/injection, schedule: Q03HX024 (ip), vehicle: water): 112 % of control | T/C (endpoint: mean survival time, dose: 4.0 mg/kg/injection, schedule: Q03HX024 (oral), vehicle: water): 100 % of control and 101 % of control | T/C (endpoint: mean survival time, dose: 4.0 mg/kg/injection, schedule: Q08DX002 (ip), vehicle: water): 107 % of control | T/C (endpoint: mean survival time, dose: 4.0 mg/kg/injection, schedule: Q08DX002 (oral), vehicle: water): 101 % of control | T/C (endpoint: mean survival time, dose: 5.0 mg/kg/injection, schedule: Q01DX009 (oral), vehicle: water): 103 % of control | T/C (endpoint: mean survival time, dose: 6.0 mg/kg/injection, schedule: Q01DX009 (ip), vehicle: saline): 271 % of control | T/C (endpoint: mean survival time, dose: 8.0 mg/kg/injection, schedule: Q01DX009 (ip), vehicle: water): 96 % of control | T/C (endpoint: mean survival time, dose: 8.0 mg/kg/injection, schedule: Q01DX009 (oral), vehicle: water): 104 % of control (2×) and 107 % of control | T/C (endpoint: mean survival time, dose: 8.0 mg/kg/injection, schedule: Q01DX009 (sc), vehicle: water): 101 % of control and 117 % of control | T/C (endpoint: mean survival time, dose: 8.0 mg/kg/injection, schedule: Q03HX024 (oral), vehicle: water): 106 % of control | T/C (endpoint: mean survival time, dose: 8.0 mg/kg/injection, schedule: Q03HX024 (sc), vehicle: water): 104 % of control | T/C (endpoint: mean survival time, dose: 8.0 mg/kg/injection, schedule: Q04DX003 (ip), vehicle: water): 160 % of control and 164 % of control and 175 % of control | T/C (endpoint: mean survival time, dose: 9.0 mg/kg/injection, schedule: Q01DX009 (ip), vehicle: saline): 109 % of control | T/C (endpoint: mean survival time, dose: 10.0 mg/kg/injection, schedule: Q01DX009 (oral), vehicle: water): 103 % of control | T/C (endpoint: mean survival time, dose: 16.0 mg/kg/injection, schedule: Q01DX009 (ip), vehicle: water): 94 % of control | T/C (endpoint: mean survival time, dose: 16.0 mg/kg/injection, schedule: Q01DX009 (oral), vehicle: water): 101 % of control | T/C (endpoint: mean survival time, dose: 16.0 mg/kg/injection, schedule: Q04DX003 (ip), vehicle: water): 177 % of control and 190 % of control and 245 % of control | T/C (endpoint: mean survival time, dose: 18.0 mg/kg/injection, schedule: Q01DX001 (ip), vehicle: saline): 157 % of control | T/C (endpoint: mean survival time, dose: 20.0 mg/kg/injection, schedule: Q01DX009 (oral), vehicle: water): 100 % of control | T/C (endpoint: mean survival time, dose: 25.0 mg/kg/injection, schedule: Q01DX001 (ip), vehicle: saline): 120 % of control | T/C (endpoint: mean survival time, dose: 32.0 mg/kg/injection, schedule: Q01DX009 (oral), vehicle: water): 103 % of control and 111 % of control | T/C (endpoint: mean survival time, dose: 32.0 mg/kg/injection, schedule: Q03HX008 (ip), vehicle: water): 190 % of control | T/C (endpoint: mean survival time, dose: 40.0 mg/kg/injection, schedule: Q01DX009 (oral), vehicle: water): 105 % of control | T/C (endpoint: mean survival time, dose: 64.0 mg/kg/injection, schedule: Q01DX009 (oral), vehicle: water): 100 % of control and 102 % of control | T/C (endpoint: mean survival time, dose: 80.0 mg/kg/injection, schedule: Q01DX009 (oral), vehicle: water): 110 % of control | T/C (endpoint: median survival time, dose: 0.5 mg/kg/injection, schedule: Q03HX024 (ip), vehicle: water): 120 % of control and 122 % of control | T/C (endpoint: median survival time, dose: 1.3 mg/kg/injection, schedule: Q03HX024 (ip), vehicle: water): 190 % of control and 191 % of control | T/C (endpoint: median survival time, dose: 2.2 mg/kg/injection, schedule: Q01DX009 (ip), vehicle: water): 195 % of control and 198 % of control | T/C (endpoint: median survival time, dose: 2.2 mg/kg/injection, schedule: Q03HX024 (ip), vehicle: water): 235 % of control and 247 % of control | T/C (endpoint: median survival time, dose: 3.6 mg/kg/injection, schedule: Q01DX009 (ip), vehicle: water): 225 % of control and 227 % of control | T/C (endpoint: median survival time, dose: 6.0 mg/kg/injection, schedule: Q01DX009 (ip), vehicle: water): 170 % of control and 172 % of control | T/C (endpoint: median survival time, dose: 10.0 mg/kg/injection, schedule: Q01DX009 (ip), vehicle: water): 120 % of control and 122 % of control

Cc1nn(C)c2ccc([N+](=O)[O-])cc12
T/C (endpoint: mean survival time, dose: 100.0 mg/kg/injection, schedule: Q01DX009 (ip), vehicle: Klucel (hydroxypropylcellulose) (HPC)): 91 % of control | T/C (endpoint: mean survival time, dose: 200.0 mg/kg/injection, schedule: Q01DX009 (ip), vehicle: Klucel (hydroxypropylcellulose) (HPC)): 102 % of control | T/C (endpoint: mean survival time, dose: 200.0 mg/kg/injection, schedule: Q04DX003 (ip), vehicle: Klucel (hydroxypropylcellulose) (HPC)): 97 % of control | T/C (endpoint: mean survival time, dose: 400.0 mg/kg/injection, schedule: Q01DX009 (ip), vehicle: Klucel (hydroxypropylcellulose) (HPC)): 96 % of control | T/C (endpoint: mean survival time, dose: 400.0 mg/kg/injection, schedule: Q04DX003 (ip), vehicle: Klucel (hydroxypropylcellulose) (HPC)): 98 % of control

O=[N+]([O-])c1ccc(N/N=C/CCl)c([N+](=O)[O-])c1
T/C (endpoint: mean survival time, dose: 6.25 mg/kg/injection, schedule: Q01DX009 (ip), vehicle: saline with Tween-80): 94 % of control and 98 % of control | T/C (endpoint: mean survival time, dose: 6.25 mg/kg/injection, schedule: Q04DX003 (ip), vehicle: saline with Tween-80): 99 % of control | T/C (endpoint: mean survival time, dose: 12.5 mg/kg/injection, schedule: Q01DX009 (ip), vehicle: saline with Tween-80): 102 % of control and 105 % of control | T/C (endpoint: mean survival time, dose: 12.5 mg/kg/injection, schedule: Q04DX003 (ip), vehicle: saline with Tween-80): 87 % of control | T/C (endpoint: mean survival time, dose: 25.0 mg/kg/injection, schedule: Q01DX009 (ip), vehicle: saline with Tween-80): 98 % of control and 103 % of control | T/C (endpoint: mean survival time, dose: 25.0 mg/kg/injection, schedule: Q04DX003 (ip), vehicle: saline with Tween-80): 91 % of control
